Data: US20250109127A1, “METHODS OF USE OF PHENOXYPROPYLAMINE COMPOUNDS TO TREAT DEPRESSION” (Minerva Neurosciences, Inc., priority 2013, published 2025)
Values joined by “and” are separate entries in the source; they are usually repeats but may differ in a detail not shown here. Equal entries are not always repeated. Structures can show the parent of a compound that is named as a salt.

System: norepinephrin release in the rat prefrontal cortex
Assay: Microdialysis: norepinephrine release in prefrontal cortex after I.P. administration
Assay type: in vivo
Details: for NOREPINEPHRIN (% of respective basal), individual animal: 0.3 mg/kg I.P., c2-c9 = R#11,12,18,23,29,30,17,24; for NOREPINEPHRIN (% of respective basal), individual animal / Norepinephrin release, individual animals: hydrochloride; for Norepinephrin release, MEAN / Norepinephrin release, individual animals: 3 mg/kg IP; for Norepinephrin release, MEAN: n = 8; for Norepinephrin release, individual animals: per animal R#15,16,21,22,27,28,09,10
Method: The aim of the study was to evaluate, using microdialysis, the effects of an intraperitoneal (I.P.) administration in rats of three different doses of SON-117 on dopamine and its metabolites, serotonin and its metabolite (5-HIAA), and norepinephrine levels in prefrontal cortex.
Thirty-two adult male Wistar rats were used for the whole study (4 groups of eight animals planned for the study, Table 1).
Surgery was performed on rats weighing about 300 g at the beginning of the experiments. Rats were anaesthetized with Ketamine (50 mg/kg) & Xylazine (15 mg/kg) by intramuscular administration. The animals were placed in a stereotaxic apparatus in the flat-skull position at a constant setting of −3.3 mm between ear bars and the incisor bar. The animals were treated with a local anesthesic (xylocaine 1%, Astra Zeneca) and an analgesic (Temgesic, from Schering Plough, 0.05 mg/kg, s.c.). A rostrocaudal midline incision was made with a lancet to expose the dorsal skull surface. The “stereotaxic zero” was defined by the Bregma in accordance with Paxinos and Watson's atlas (1986). A hole was drilled in the skull with a drill and the meninges were pierced with a sterile needle to implant a CMA12 guide cannula which later received the dialysis probe.
Coordinates used for implanting guide cannula in prefrontal cortex from Bregma were anteroposterior 3.7 mm, mediolateral 0.8 mm, and dorsoventral −2 mm (top of the probe was at −5 mm). The guide cannula was fixed to the skull with two stainless steel screws (1.88 mm outside diameter) anchored. An application of dental cement was added. A plastic collar allowed each animal to be tethered to a Swivel assembly of the CMA 120 awake animal system. Following surgery, rats were kept in individual cages and allowed to recover for a minimum of 3-5 days before the experimentation. The rats were handled and put in plastic bowl for 10 min at least every day to habituate the animals to their new environment for the dialysis. An I.P. administration with saline was also performed every day.
Dialysis probes (CMA12/3 mm, membrane, 20 kD cut-off, Carnegie Medicine, Stockholm, Sweden), were carefully washed before inserting into the guide cannula. The wash was performed with the artificial cerebrospinal fluid (aCSF) medium (NaCl 147 mM, KCl 2.7 mM, CaCl2 1.2 mM, MgCl2 0.85 mM) at room temperature. The dialysis system was then equilibrated at 20° C. at a perfusion rate of 1 μl/min with a Carnegie pump (CMA100). All catheters (FEP tubing, internal volume of 1.2 μl/10 cm, and tubing adaptors) used for microdialysis were treated in the same conditions.
The probes duly prepared were inserted into the guide cannula and the CMA120 Swivel assembly secured to the animal using a plastic collar. Flow through the dialysis probe with aCSF was maintained at a rate of 1 μl/min during the whole experimentation. The first four fractions (corresponding to 2 hours) were discarded to avoid the effects of parenchymal disturbance and to ensure that an approximate steady-state level was reached. Fractions were then collected over a period of 8.5 h during which time the animals remained quiet. The dialysates were automatically collected with an autosampler (microfraction collector CMA 140, Carnegie Medicin) and stored at −80° C. until analysis. […] Perfusion was then maintained for 7 hours with aCSF. The dialysates (30 μl) were collected into 300 μl vials, transferred into dry ice and then kept frozen (−80° C.) until analysis. Frozen samples were shipped to a partner for analysis. At the end of the microdialysis study, a PBS with colored ink was perfused through the probe in order to visualize the dialyzed area.
Catecholamine assay: Concentrations of dopamine, DOPAC, HVA, 5-HIAA, 5-HT, and norepinephrin were determined for each sample by HPLC coupled with electrochemical detection. […]

## Cc1nnc(-c2cc3c(OC[C@@H](O)CN4CCC(c5ccc(Cl)c(Cl)c5)CC4)cccc3o2)o1 [SON-117, (S)-1-(4-(3,4-dichlorophenyl)piperidino)-3-(2-(5-methyl-1,3,4-oxadiazol-2-yl)benzo(b)furan-4-yloxy)-2-propanol hydrochloride]
T0-T30 min
  NOREPINEPHRIN (% of respective basal), individual animal: 93.23 % of respective basal and 109.66 % of respective basal and 94.50 % of respective basal and 91.56 % of respective basal and 103.16 % of respective basal and 122.80 % of respective basal and 169.48 % of respective basal and 88.04 % of respective basal
  Norepinephrin release, MEAN: 95.03 % of respective basal
T30-T1 h
  NOREPINEPHRIN (% of respective basal), individual animal: 104.42 % of respective basal and 107.28 % of respective basal and 98.29 % of respective basal and 99.12 % of respective basal and 108.78 % of respective basal and 113.81 % of respective basal and 113.33 % of respective basal and 88.14 % of respective basal
  Norepinephrin release, MEAN: 97.36 % of respective basal
  Norepinephrin release, individual animals: 88.36 % of respective basal and 115.03 % of respective basal and 81.23 % of respective basal and 99.91 % of respective basal and 84.13 % of respective basal and 101.13 % of respective basal and 112.87 % of respective basal and 96.25 % of respective basal
T1 h 30-T2 h
  NOREPINEPHRIN (% of respective basal), individual animal: 99.20 % of respective basal and 86.76 % of respective basal and 108.98 % of respective basal and 92.71 % of respective basal and 104.84 % of respective basal and 66.21 % of respective basal and 122.80 % of respective basal and 84.63 % of respective basal
  Norepinephrin release, MEAN: 89.60 % of respective basal
  Norepinephrin release, individual animals: 82.12 % of respective basal and 112.19 % of respective basal and 79.22 % of respective basal and 97.76 % of respective basal and 65.77 % of respective basal and 100.10 % of respective basal and 89.95 % of respective basal and 89.72 % of respective basal
T1 h-T1 h 30
  NOREPINEPHRIN (% of respective basal), individual animal: 86.88 % of respective basal and 98.78 % of respective basal and 112.17 % of respective basal and 98.26 % of respective basal and 98.75 % of respective basal and 106.99 % of respective basal and 111.81 % of respective basal and 90.76 % of respective basal
  Norepinephrin release, MEAN: 107.89 % of respective basal
  Norepinephrin release, individual animals: 172.07 % of respective basal and 112.74 % of respective basal and 81.36 % of respective basal and 103.59 % of respective basal and 89.22 % of respective basal and 99.07 % of respective basal and 110.12 % of respective basal and 94.94 % of respective basal
T2 h 30-T3 h
  NOREPINEPHRIN (% of respective basal), individual animal: 84.23 % of respective basal and 104.60 % of respective basal and 128.99 % of respective basal and 92.07 % of respective basal and 101.47 % of respective basal and 118.46 % of respective basal and 126.06 % of respective basal and 98.73 % of respective basal
  Norepinephrin release, MEAN: 89.71 % of respective basal
  Norepinephrin release, individual animals: 86.59 % of respective basal and 101.34 % of respective basal and 74.62 % of respective basal and 92.57 % of respective basal and 76.53 % of respective basal and 86.90 % of respective basal and 101.62 % of respective basal and 97.13 % of respective basal
T2 h-T2 h 30
  NOREPINEPHRIN (% of respective basal), individual animal: 76.65 % of respective basal and 101.56 % of respective basal and 126.15 % of respective basal and 88.09 % of respective basal and 101.06 % of respective basal and 105.86 % of respective basal and 113.08 % of respective basal and 89.61 % of respective basal
  Norepinephrin release, MEAN: 89.42 % of respective basal
  Norepinephrin release, individual animals: 76.71 % of respective basal and 108.71 % of respective basal and 69.68 % of respective basal and 89.57 % of respective basal and 80.18 % of respective basal and 97.07 % of respective basal and 98.74 % of respective basal and 94.71 % of respective basal
T3 h 30-T4 h
  NOREPINEPHRIN (% of respective basal), individual animal: 100.21 % of respective basal and 138.06 % of respective basal and 105.65 % of respective basal and 106.80 % of respective basal and 135.47 % of respective basal and 201.02 % of respective basal and 113.60 % of respective basal
T3 h-T3 h 30
  NOREPINEPHRIN (% of respective basal), individual animal: 120.36 % of respective basal and 139.04 % of respective basal and 95.95 % of respective basal and 93.13 % of respective basal and 129.61 % of respective basal and 137.11 % of respective basal and 99.05 % of respective basal
T4 h 30-T5 h
  NOREPINEPHRIN (% of respective basal), individual animal: 91.48 % of respective basal and 153.66 % of respective basal and 179.53 % of respective basal and 95.60 % of respective basal and 107.83 % of respective basal and 118.17 % of respective basal and 146.73 % of respective basal and 113.45 % of respective basal
T4 h-T4 h 30
  NOREPINEPHRIN (% of respective basal), individual animal: 88.77 % of respective basal and 125.81 % of respective basal and 155.70 % of respective basal and 105.70 % of respective basal and 109.87 % of respective basal and 112.18 % of respective basal and 148.00 % of respective basal and 108.96 % of respective basal
T5 h 30-T6 h
  NOREPINEPHRIN (% of respective basal), individual animal: 91.57 % of respective basal and 160.34 % of respective basal and 198.08 % of respective basal and 89.28 % of respective basal and 123.68 % of respective basal and 111.49 % of respective basal and 183.96 % of respective basal and 124.88 % of respective basal
T5 h-T5 h 30
  NOREPINEPHRIN (% of respective basal), individual animal: 62.74 % of respective basal and 157.36 % of respective basal and 184.76 % of respective basal and 91.16 % of respective basal and 116.17 % of respective basal and 125.90 % of respective basal and 153.13 % of respective basal and 108.22 % of respective basal
T6 h-T6 h 30
  NOREPINEPHRIN (% of respective basal), individual animal: 107.74 % of respective basal and 153.11 % of respective basal and 204.06 % of respective basal and 115.67 % of respective basal and 145.69 % of respective basal and 126.68 % of respective basal
